For 20 molecules, IC50 results are on record in patent US10479780B2, “Aminopyrazole derivatives” (Chugai Seiyaku Kabushiki Kaisha, priority 2015, dated 2019).

pIC50: −log10 of the molar value. Read-outs that look alike come from different tables or passages of the source.

Holding throughout (assay type): biochemical
For one assay, the target named is T1, human Yes1 enzyme (Homo sapiens, UniProt P07947).
T1 construct: made in house
Kind of assay: Yes1 enzyme inhibitory activity (time-resolved fluorometry, biotinylated peptide phosphorylation). The note with it: read-out: YES_IC50. An outline of the steps:
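Inhibition was expressed against a compound-free control to give IC50, using TR-FRET read-out (Eu-cryptate anti-pTyr antibody, streptavidin-XL665).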

A further assay deals with T2, human Src enzyme (Homo sapiens, UniProt P12931).
T2 construct: purchased Carna Biosciences, Inc. 08-173
T2 sequence (P12931 whole entry): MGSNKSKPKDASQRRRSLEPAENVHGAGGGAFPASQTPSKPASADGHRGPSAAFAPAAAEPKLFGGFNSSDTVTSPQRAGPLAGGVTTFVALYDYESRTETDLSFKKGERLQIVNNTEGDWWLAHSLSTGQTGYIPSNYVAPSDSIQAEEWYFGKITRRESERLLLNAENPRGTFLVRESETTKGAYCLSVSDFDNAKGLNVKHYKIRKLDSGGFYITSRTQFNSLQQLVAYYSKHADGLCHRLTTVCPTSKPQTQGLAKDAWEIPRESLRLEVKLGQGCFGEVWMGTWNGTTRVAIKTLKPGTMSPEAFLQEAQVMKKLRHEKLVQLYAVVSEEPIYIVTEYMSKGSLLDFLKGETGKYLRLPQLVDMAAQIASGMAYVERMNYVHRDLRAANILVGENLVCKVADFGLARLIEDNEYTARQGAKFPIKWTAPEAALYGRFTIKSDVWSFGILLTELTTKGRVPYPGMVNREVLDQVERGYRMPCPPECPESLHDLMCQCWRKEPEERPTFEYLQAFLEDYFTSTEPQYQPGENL
Kind of assay: Src enzyme inhibitory activity (time-resolved fluorometry, biotinylated peptide phosphorylation). As to conditions: read-out: SRC_IC50. An outline of the steps:
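Compounds were tested for blocking tyrosine phosphorylation of a biotinylated peptide substrate by recombinant human Src. Phosphorylated product was quantified by time-resolved fluorometry using europium cryptate and XL665 conjugates, and IC50 was calculated against the compound-free control.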

Another assay has as its target T3, human Lck enzyme (Homo sapiens, UniProt P06239).
T3 construct: purchased Carna Biosciences, Inc. 08-170
Briefly: Lck enzyme inhibitory activity (time-resolved fluorometry, biotinylated peptide phosphorylation). As to conditions: read-out: LCK_IC50. The essentials: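 Readout pairs a europium cryptate-labelled anti-phosphotyrosine antibody with XL665-streptavidin, measured by time-resolved fluorescence. IC50 derived from percent inhibition against untreated controls.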

Setting [1] is: biotinylated peptide phosphorylation.

T1 sequence (P07947 whole entry): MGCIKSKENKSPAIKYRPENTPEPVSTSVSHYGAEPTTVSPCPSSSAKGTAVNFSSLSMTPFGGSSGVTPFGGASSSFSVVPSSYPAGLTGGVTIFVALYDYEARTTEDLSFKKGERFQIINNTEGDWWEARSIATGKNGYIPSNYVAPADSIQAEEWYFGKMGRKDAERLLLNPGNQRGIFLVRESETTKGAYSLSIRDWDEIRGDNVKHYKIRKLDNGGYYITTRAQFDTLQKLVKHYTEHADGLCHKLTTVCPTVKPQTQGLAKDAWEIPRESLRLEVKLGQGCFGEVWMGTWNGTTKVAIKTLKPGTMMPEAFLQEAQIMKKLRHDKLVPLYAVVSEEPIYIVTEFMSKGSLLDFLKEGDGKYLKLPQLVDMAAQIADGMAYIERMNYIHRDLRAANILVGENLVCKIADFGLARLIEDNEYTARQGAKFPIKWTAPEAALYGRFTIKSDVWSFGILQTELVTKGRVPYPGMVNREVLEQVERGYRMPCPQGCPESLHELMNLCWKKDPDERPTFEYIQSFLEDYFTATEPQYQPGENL
T3 sequence (P06239 whole entry): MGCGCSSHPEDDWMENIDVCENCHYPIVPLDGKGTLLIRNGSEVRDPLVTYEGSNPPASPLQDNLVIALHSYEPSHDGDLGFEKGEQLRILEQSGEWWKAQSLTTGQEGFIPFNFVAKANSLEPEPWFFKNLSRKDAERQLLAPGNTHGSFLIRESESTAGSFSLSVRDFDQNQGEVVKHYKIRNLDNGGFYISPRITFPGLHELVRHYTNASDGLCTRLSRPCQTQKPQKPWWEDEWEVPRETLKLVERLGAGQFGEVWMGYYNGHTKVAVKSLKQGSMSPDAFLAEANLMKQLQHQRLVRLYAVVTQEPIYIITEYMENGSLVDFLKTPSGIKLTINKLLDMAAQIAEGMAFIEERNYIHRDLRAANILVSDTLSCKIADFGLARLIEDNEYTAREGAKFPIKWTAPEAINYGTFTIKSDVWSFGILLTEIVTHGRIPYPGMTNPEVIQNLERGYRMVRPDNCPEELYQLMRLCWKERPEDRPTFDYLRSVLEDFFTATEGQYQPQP

On to `Cc1cc2cc(C(=O)c3cnn(-c4cnc(Oc5c(F)cccc5F)cc4C)c3N)[nH]c2cc1N1C(=O)NC(C)(C(F)(F)F)C1=O` (stereo not drawn) [Example 5-1-429, 3-[2-[5-amino-1-[6-(2,6-difluorophenoxy)-4-methylpyridin-3-yl]pyrazole-4-carbonyl]-5-methyl-1H-indol-6-yl]-5-methyl-5-(trlfluoromethyl)imidazolidine-2,4-dione], for which the results for the pIC50 at human Yes1 enzyme (setting [1]), on human Src enzyme (setting [1]) and at human Lck enzyme (setting [1]) were 8.12, 6.72 and 7.60, respectively.
With `Cc1cc2[nH]c(C(=O)c3cnn(-c4ccc(Oc5ccccc5F)cc4C)c3N)cc2cc1NS(C)(=O)=O` [Example 4-2-049, N-[2-[5-amino-1-[4-(2-fluorophenoxy)-2-methylphenyl]pyrazole-4-carbonyl]-6-methyl-1H-indol-5-yl]methanesulfonamide], the pIC50 on human Yes1 enzyme (setting [1]) is 9.54; on human Src enzyme (setting [1]), 8.72; at human Lck enzyme (setting [1]) it was 8.77.
`Cc1cc(Oc2ccccc2F)ccc1-n1ncc(C(=O)c2cc3cc(F)c(N4C(=O)N[C@@H](CO)C4=O)cc3[nH]2)c1N` [Example 5-1-446, (5S)-3-[2-[5-amino-1-[4-(2-fluorophenoxy)-2-methylphenyl]pyrazole-4-carbonyl]-5-fluoro-1H-indol-6-yl]-5-(hydroxymethyl)imidazolidine-2,4-dione]: the figures for the pIC50 on human Yes1 enzyme (setting [1]), at human Src enzyme (setting [1]) and on human Lck enzyme (setting [1]) were 9.36, 7.89 and 8.68, respectively.
`Cc1cc(Oc2ccccc2F)ccc1-n1ncc(C(=O)c2cc3cc(F)c(NS(=O)(=O)c4cccc(F)n4)cc3[nH]2)c1N` [Example 5-1-517, N-[2-[5-amino-1-[4-(2-fluorophenaxy)-2-methylphenyl]pyrazole-4-carbonyl]-5-fluoro-1H-indol-5-yl]-6-fluoropyridine-2-sulfonamide]: the pIC50 was 8.68 on human Yes1 enzyme (setting [1]), 6.52 on human Src enzyme (setting [1]) and 7.47 on human Lck enzyme (setting [1]).
As to `Cc1cc(-n2ncc(C(=O)c3cc4cc(OC(F)F)c(NS(C)(=O)=O)cc4[nH]3)c2N)ccc1Oc1ccccc1F` [Example 5-1-167, N-[2-[5-amino-1-[4-(2-fluorophenoxy)-3-methylphenyl]pyrazole-4-carbonyl]-5-(difluoromethoxy)-1H-indol-6-yl] methanesulfonamide], the pIC50 at human Yes1 enzyme is 8.44; at human Src enzyme, 5.70; on human Lck enzyme it was 6.43.
`Cc1cc(Oc2ccccc2F)ccc1-n1ncc(C(=O)c2cc3cc(OCC(F)F)c(NC4COC4)cc3[nH]2)c1N` [Example 4-23-016, [5-amino-1-[4-(2-fluorophenoxy)-2-methylphenyl]pyrazol-4-yl]-[5-(2,2-difluoroethoxy)-6-(oxetan-3-ylamino)-1H-indol-2-yl]methanone]: the pIC50 at human Yes1 enzyme (setting [1]) is 9.03; on human Src enzyme (setting [1]), 7.68; at human Lck enzyme (setting [1]), 8.27.
As for `COC(=O)[C@H](Cc1cnc[nH]1)NC(=O)Nc1cc2[nH]c(C(=O)c3cnn(-c4ccc(Oc5ccccc5F)cc4C)c3N)cc2cc1OCC(F)F` [Example 5-1-246, Methyl (2S)-2-[[2-[5-amino-1-[4-(2-fluorophenoxy)-2-methylphenyl]pyrazole-4-carbonyl]-5-(2,2-difluoroethoxy)-1H-indol-6-yl]carbamoylamino]-3-(1H-imidazol-5-yl) propanoate], the pIC50 on human Yes1 enzyme is 8.80; at human Src enzyme, 7.80; at human Lck enzyme, 8.15.
As to `Cc1cc(Oc2c(F)cccc2F)ncc1-n1ncc(C(=O)c2cc3cc(C4CC4)c(NS(=O)(=O)CCCF)cc3[nH]2)c1N` [Example 5-1-427, N-[2-[5-amino-1-[6-(2,6-difluorophenoxy)-4-methylpyridin-3-yl]pyrazole-4-carbonyl]-5-cyclopropyl-1H-indol-6-yl]-3-fluoropropane-1-sulfonamide], the pIC50 is 8.42 on human Yes1 enzyme (setting [1]), 6.77 on human Src enzyme (setting [1]) and 7.37 on human Lck enzyme (setting [1]).
For `Cc1cc(Oc2c(F)cccc2F)ncc1-n1ncc(C(=O)c2cc3cc(OC(F)F)c(N4C(=O)C(C)(C)NC4=S)cc3[nH]2)c1N` [Example 4-23-038, 3-[2-[5-amino-1-[6-(2,6-difluorophenoxy)-4-methylpyridin-3-yl]pyrazole-4-carbonyl]-5-(difluoromethoxy)-1H-indol-6-yl]-5,5-dimethyl-2-sulfanylideneimidazolidin-4-one], the pIC50 on human Yes1 enzyme (setting [1]) is 8.92; on human Src enzyme (setting [1]), 7.15; on human Lck enzyme (setting [1]), 8.00.
As to `Cc1cc(Oc2cccc(Cl)c2)cc(F)c1-n1ncc(C(=O)c2cc3cc(F)c(NS(C)(=O)=O)cc3[nH]2)c1N` [Example 4-7-011, N-[2-[5-amino-1-[4-(3-chlorophenoxy)-2-fluoro-6-methylphenyl]pyrazole-4-carbonyl]-5-fluoro-1H-indol-6-yl]methanesulfonamide], the figures for the pIC50 at human Yes1 enzyme (setting [1]), on human Src enzyme (setting [1]) and on human Lck enzyme (setting [1]) were 7.85, 6.70 and 7.01, respectively.
In the same order, the values of `Cc1cc(Oc2ccccc2F)ncc1-n1ncc(C(=O)c2cc3cc(F)c(NS(=O)(=O)c4cccc(Cl)n4)cc3[nH]2)c1N` [Example 5-1-529, N-[2-[5-amino-1-[6-(2-fluorophenoxy)-4-methylpyridin-3-yl]pyrazole-4-carbonyl]-5-fluoro-1H-indol-6-yl]-6-chloropyridine-2-sulfonamide] are 8.07, 6.08 and 6.59.
On to `Cc1cc(-n2ncc(C(=O)c3cc4cc(F)c(NS(C)(=O)=O)cc4[nH]3)c2N)cnc1Oc1ccccc1F` [Example 5-1-039, N-[2-[5-amino-1-[6-(2-fluorophenoxy)-5-methylpyridin-3-yl]pyrazole-4-carbonyl]-5-fluoro-1H-indol-6-yl]methanesulfonamide], for which the pIC50 on human Yes1 enzyme is 6.92; on human Src enzyme, 5.21; at human Lck enzyme, 5.70.
Take `Cc1cc(Oc2ccccc2F)ccc1-n1ncc(C(=O)c2cc3cc(F)c(C4CCN(C(C)C)CC4)cc3[nH]2)c1N` [Example 4-2-010, [5-amino-1-[4-(2-fluorophenoxy)-2-methylphenyl]pyrazol-4-yl]-[5-fluoro-6-(1-propan-2-ylpiperidin-4-yl)-1H-indol-2-yl]methanone]: the pIC50 on human Yes1 enzyme (setting [1]) was 8.92; at human Src enzyme (setting [1]), 8.33; on human Lck enzyme (setting [1]), 8.72.
`Cc1cc(Oc2ccccc2F)cc(F)c1-n1ncc(C(=O)c2cc3cc(OC(F)F)c(N4CCOCC4)cc3[nH]2)c1N` [Example 4-25-025, [5-amino-1-[2-fluoro-4-(2-fluorophenoxy)-6-methylphenyl]pyrazol-4-yl]-[5-(difluoromethoxy)-6-morpholin-4-yl-1H-indol-2-yl]methanone]: the figures for the pIC50 at human Yes1 enzyme (setting [1]), at human Src enzyme (setting [1]) and on human Lck enzyme (setting [1]) were 7.77, 7.10 and 7.51, respectively.
As to `Cc1cc(Oc2ccccc2F)ncc1-n1ncc(C(=O)c2cc3cc(F)c(NS(=O)(=O)CC(=O)NC(C)C)cc3[nH]2)c1N` [Example 5-1-056, 2-[[2-[5-amino-1-[6-(2-fluorophenoxy)-4-methylpyridin-3-yl]pyrazole-4-carbonyl]-5-fluoro-1H-indol-6-yl]sulfamoyl]-N-propan-2-ylacetamide], the pIC50 was 8.77 at human Yes1 enzyme, 7.12 on human Src enzyme and 7.62 on human Lck enzyme.
Turning to `Cc1cc(Oc2ccccc2F)ncc1-n1ncc(C(=O)c2cc3cc(OCC(F)F)c(NS(=O)(=O)c4cccc(C#N)c4)cc3[nH]2)c1N` [Example 5-1-422, N-[2-[5-amino-1-[6-(2-fluoropheooxy)-4-methylpyridin-3-yl]pyrazole-4-carbonyl]-5-(2,2-difluoroethoxy)-1H-indol-6-yl]-3-cyanobenzenesulfonamide], the pIC50 at human Yes1 enzyme (setting [1]) is 8.77; on human Src enzyme (setting [1]), 6.60; on human Lck enzyme (setting [1]), 7.04.
As for `Nc1c(C(=O)c2cc3cc(F)c(NS(=O)(=O)CCCF)cc3[nH]2)cnn1-c1c(F)cc(Oc2ccccc2F)cc1F` [Example 5-1-027, N-[2-[5-amino-1-[2,6-difluoro-4-(2-fluorophenoxy)phenyl]pyrazole-4-carbonyl]-5-fluoro-1H-indol-6-yl]-3-fluoropropane-1-sulfonamide], the pIC50 is 9.08 on human Yes1 enzyme, 7.19 on human Src enzyme and 7.70 at human Lck enzyme.
For `Cc1cc2cc(C(=O)c3cnn(-c4ccc(Oc5ccccc5F)cc4C)c3N)[nH]c2cc1N1C(=O)[C@@H]2CCCN2C1=O` [Example 5-1-458, (7aS)-2-[2-[5-amino-1-[4-(2-fluorophenoxy)-2-methylphenyl]pyrazole-4-carbonyl]-5-methyl-1H-indol-6-yl]-5,6,7,7a-tetrahydropyrrolo[1,2-c]imidazole-1,3-dione], the pIC50 was 9.14 on human Yes1 enzyme (setting [1]), 7.80 at human Src enzyme (setting [1]) and 8.40 at human Lck enzyme (setting [1]).
In the same order, the values of `Cc1cc(Oc2ccccc2F)ccc1-n1ncc(C(=O)c2cc3cc(OCCN4CC5CC(C4)N5S(C)(=O)=O)c(NS(C)(=O)=O)cc3[nH]2)c1N` [Example 4-24-037] are 9.17, 7.62 and 8.42.
In the same order, the values of `Cc1cc(Oc2cccc(F)c2F)ccc1-n1ncc(C(=O)c2cc3cc(C4CCN(C(C)C)CC4)c(F)cc3[nH]2)c1N` [Example 4-2-002, [5-amino-1-[4-(2,3-difluorophenoxy)-2-methylphenyl]pyrazol-4-yl]-[6-fluoro-5-(1-propan-2-ylpiperidin-4-yl)-1H-indol-2-yl]methanone] are 9.05, 8.46 and 8.43.
